Numbered stars: 1 amine (or outer) side, 2 acyl side, 3 side chain; on linkers, the order of the positions; unused ones are H or OH. Square brackets hold non-standard residues; d marks the D form. Peptide text beside a SMILES is read from it. * marks the point of attachment. Propanoyl(3-(1-naphthyl)) = O=C(CCc1cccc2ccccc12)*; Propanoyl(3-(4-Cl-Ph)) = O=C(CCc1ccc(Cl)cc1)*; Acetyl(2-naphthyl) = O=C(Cc1ccc2ccccc2c1)*; 1Nal = N[C@@H](Cc1cccc2ccccc12)C(=O)O; 1Naphthoyl = O=C(c1cccc2ccccc12)*; Morpholide = C1CN(*)CCO1; X1 = COc1ccccc1C=CC(=O)*; X15 = O=C(Cc1ccc(O)cc1)*; X2 = O=C(C=Cc1ccccc1)*; CO = O=C([*:1])[*:2]; Bn = c1ccc(C*)cc1
Target: T1, LHRH receptors (Rattus norvegicus, UniProt P30969)
T1 construct: Pituitary membranes containing LHRH receptors are prepared in batches from quick-frozen rat pituitaries; tissue Hilltop Labs; host or cells: rat pituitary membranes
T1 sequence (P30969 1-327): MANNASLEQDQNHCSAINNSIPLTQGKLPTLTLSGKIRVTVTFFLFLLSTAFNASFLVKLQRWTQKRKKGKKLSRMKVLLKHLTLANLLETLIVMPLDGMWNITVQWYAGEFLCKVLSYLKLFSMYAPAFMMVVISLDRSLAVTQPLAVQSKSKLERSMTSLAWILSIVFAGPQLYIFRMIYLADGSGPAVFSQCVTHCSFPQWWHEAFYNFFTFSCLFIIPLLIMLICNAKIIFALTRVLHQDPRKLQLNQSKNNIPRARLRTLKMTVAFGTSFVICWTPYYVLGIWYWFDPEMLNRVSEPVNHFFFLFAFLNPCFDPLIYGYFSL
Assay: Receptor Binding (radioligand receptor binding assay)
Conditions: table 3; rat pituitary membranes, radioiodinated [D-Leu^6 -des Gly^10 ]-LHRH ethyl amide 50 pM, 2 hours at 4° C.; read-out: Receptor Binding pkI (converted)

Ki [nM]	SMILES
0.0741	CCNC(=O)[C@@H]1CCCN1C(=O)[C@H](CCCN=C(N)N)NC(=O)[C@H](CC(C)C)NC(=O)[C@@H](Cc1c[nH]c2ccccc12)NC(=O)[C@H](Cc1ccc(O)cc1)NC(=O)[C@H](CO)NC(=O)[C@@H](Cc1c[nH]c2ccccc12)NC(=O)CCc1ccc(Cl)cc1 [Compound 85, (3 9)[N-(3-(4-Chlorophenyl)propionyl)-D-Trp^3,6 -Pro^9 NHEt]LHRH] ({Propanoyl(3-(4-Cl-Ph))}-[dW]SY[dW]LRP-NHEt)
50.1	CCNC(=O)[C@@H]1CCCN1C(=O)[C@H](CCCNC(=N)N)NC(=O)[C@H](CC(C)C)NC(=O)[C@@H](CC(C)C)NC(=O)[C@H](Cc1ccc(O)cc1)NC(=O)[C@H](CO)NC(=O)[C@H](Cc1c[nH]c2ccccc12)NC(=O)C=Cc1ccccc1 [Compound 63, (3-9)[N-Cinnamoyl-Trp^3 -D-Leu^6 -Pro^9 -NHEt]LHRH] (X2-WSY[dL]LRP-NHEt)
3.98	CCNC(=O)[C@@H]1CCCN1C(=O)[C@H](CCCNC(=N)N)NC(=O)[C@H](CC(C)C)NC(=O)[C@@H](CCCNC(=N)N)NC(=O)[C@H](Cc1ccc(O)cc1)NC(=O)[C@H](CO)NC(=O)CCc1cccc2ccccc12 [Compound 44, (4-9)[N-(3-(1-Naphthyl)propionyl)-Ser^4 -D-Arg^6 -Pro^9 -NHEt]LHRH] ({Propanoyl(3-(1-naphthyl))}-SY[dR]LRP-NHEt)
1.41	CCNC(=O)[C@@H]1CCCN1C(=O)[C@H](CCCNC(=N)N)NC(=O)[C@H](CC(C)C)NC(=O)[C@@H](Cc1c[nH]c2ccccc12)NC(=O)[C@H](Cc1ccc(O)cc1)NC(=O)[C@H](CO)NC(=O)C=Cc1ccccc1OC [Compound 16, (4-9)[N-(ortho-Methoxycinnamoyl)-Ser^4 -D-Trp^6 -Pro^9 -NHEt]LHRH] (X1-SY[dW]LRP-NHEt)
0.1	CCNC(=O)[C@@H]1CCCN1C(=O)[C@H](CCCNC(=N)N)NC(=O)[C@H](CC(C)C)NC(=O)[C@@H](Cc1c[nH]c2ccccc12)NC(=O)[C@H](Cc1ccc(O)cc1)NC(=O)[C@H](CO)NC(=O)[C@H](Cc1c[nH]c2ccccc12)NC(=O)[C@H](Cc1cccc2ccccc12)NC(=O)N1CCOCC1 [Compound 110, (2-9)[N-(N-alpha-Morpholinocarbonyl)-1-Nal^2 -D-Trp^6 -Pro^9 NHEt]LHRH] ({Morpholide-CO}-[1Nal]WSY[dW]LRP-NHEt)
0.562	CCNC(=O)[C@@H]1CCCN1C(=O)[C@H](CCCN=C(N)N)NC(=O)[C@H](CC(C)C)NC(=O)[C@@H](Cc1c[nH]c2ccccc12)NC(=O)[C@H](Cc1ccc(O)cc1)NC(=O)[C@H](CO)NC(=O)[C@H](Cc1c[nH]c2ccccc12)NC(=O)Cc1ccc(O)cc1 [Compound 105, (3-9)[N-(4-Hydroxyphenyl)acetyl-Trp^3 -D -Trp^6 -Pro^9 NHEt]LHRH] (X15-WSY[dW]LRP-NHEt)
117	CCNC(=O)[C@@H]1CCCN1C(=O)[C@H](CCCNC(=N)N)NC(=O)[C@H](CC(C)C)NC(=O)[C@@H](CCCNC(=N)N)NC(=O)[C@H](Cc1ccc(O)cc1)NC(=O)[C@H](CO)NC(=O)c1cccc2ccccc12 [Compound 39, (4-9)[N-(1-Naphthoyl)-Ser^4 -D Arg^6 -Pro^9 -NHEt] LHRH] (1Naphthoyl-SY[dR]LRP-NHEt)
1.23	CCNC(=O)[C@@H]1CCCN1C(=O)[C@H](CCCNC(=N)N)NC(=O)[C@H](CC(C)C)NC(=O)[C@@H](Cc1c[nH]c2ccccc12)NC(=O)[C@H](Cc1ccc(O)cc1)NC(=O)[C@H](COCc1ccccc1)NC(=O)Cc1ccc2ccccc2c1 [Compound 12, (4-9)[N-(2-Naphthylacetyl)-Ser^4 (OBzl)-D-Trp^6 -Pro^9 -NHEt]LHRH] ({Acetyl(2-naphthyl)}-S(Bn)Y[dW]LRP-NHEt)
0.2	CCNC(=O)N[C@@H](Cc1ccccc1)C(=O)N[C@@H](Cc1c[nH]c2ccccc12)C(=O)N[C@@H](CO)C(=O)N[C@@H](Cc1ccc(O)cc1)C(=O)N[C@H](Cc1c[nH]c2ccccc12)C(=O)N[C@@H](CC(C)C)C(=O)N[C@@H](CCCNC(=N)N)C(=O)N1CCC[C@H]1C(=O)NCC [Compound 127, (2-9)[N-(N-alpha-Ethylaminocarbonyl)-Phe^2 -D-Trp^6 -Pro^9 NHEt]LHRH] ({NHEt-CO}-FWSY[dW]LRP-NHEt)

Source: patent US5140009A (Tap Pharmaceuticals, Inc., priority 1990, dated 1992)
